Columns and labels:
[1] = test system: SKBR3 human breast cancer cells; assay: histamine release and tumor cell killing with effector cells (PBMC or RBL-Sx-38); format: cell-based; conditions: poly IC 1 to 25 μg/ml added 30 minutes to 4 hours post co-incubation
Protocol: Tumor cells are incubated with increasing concentrations of Her-2 specific IgG or IgE and combined with the effector cells. Evidence of local effector cell activation is measured by assessing histamine and or beta hexosimimidase release into the culture supernatant. Confirmatory experiments showing specificity for the Her-2 Ag can be conducted using anti-NP IgE and NP-HSA or anti-PSA IgE and PSA or conjugated PSA. In addition to immediate hypersensitivity, the target cells can be pre-labeled with Calcein AM and the ability of the anti-Her2 IgE or IgG to induce tumor killing can be monitored via direct effect of the PBMC or the RBL-Sx-38 cells in inducing release of the Calcein AM label.
Having established the baseline activity of a representative Ag specific IgE monoclonal in terms of both histamine release and basic tumor cell killing, the effect of corticosteroid and specific adjuvant on the model can be measured. […] The ability of TLR3 stimulation to augment the ADCC effect is addressed by adding low concentrations (1 to 25 μg/ml) of poly IC (Sigma) to the system at various time points.

[2] = test system: transgenic mice expressing the human FcεRIα; assay: passive cutaneous anaphylaxis with tumor microspheroids; format: in vivo; conditions: agent administered to the mouse
Protocol: Passive cutaneous anaphylaxis is performed in transgenic mice expressing the human FcεRIα. Transgenic mice are shaved and injected intradermally in different regions of the dorsal side with […] of 6 mg/ml histamine base (HollisterStier, Spokane, Wash.), 1 μg anti-PSA IgE, CT26-PSA or CT26-Neo microspheroid alone, 2 μg of crosslinker anti-human kappa antibody alone, 1 μg anti-PSA IgE plus CT26-PSA or CT26-Neo microspheroid, or 1 μg anti-PSA IgE crosslinked with 2 μg of an anti-human kappa antibody. After 15 min, 1% Evans Blue in […] saline is injected i.v. Mice are sacrificed 20 min later, and local cutaneous anaphylaxis is assessed visually by the blue leakage in the area surrounding the injection. […] This effect is not prevented by administration of cortisol to the mouse; however pre-administration of an H1 blocking agent inhibits the size of the response.

Compound | cell killing (ADCC effect) [1] | effect of co-medication on IgE-induced wheal and flare reaction [2]
poly IC | enhances the amount of killing observed | 
C[C@]12CCC(=O)C=C1CC[C@@H]1[C@@H]2[C@@H](O)C[C@@]2(C)[C@H]1CC[C@]2(O)C(=O)CO [cortisol] |  | not prevented
